≈ marks a conversion by molar mass, not a printed value. Where only a bound is given, the exact number is not on record here.

The conditions of the data set: buffer; pH 7.4; 200.0 µM.
With `CC1CCN(c2ccccc2NC(=O)c2ccc([N+](=O)[O-])o2)CC1`, the kinetic solubility is 0.5 µg/mL (≈ 1.52 µM).
In the case of `COc1cccc2[nH]c(C(=O)NC(C)c3ccccc3)cc12` (configuration not stated) it was > 44.2 µg/mL; in that of `O=C(CSc1nncn1-c1ccccc1)N1CCCC1`, > 43.3 µg/mL; in that of `O=C(O)c1ccc(NC(=S)NC(=O)c2cccnc2)cc1`, > 45.2 µg/mL.
In turn, `CN(C)c1ccc(C2NC(=O)c3ccccc3N2)cc1` (configuration not stated) yielded a kinetic solubility of 8.8 µg/mL (≈ 32.9 µM).
`CC1CCCCC1NC(=O)c1cc(S(=O)(=O)N2CCOCC2)ccc1Cl` (configuration not stated) displayed a kinetic solubility of 16.7 µg/mL (≈ 41.7 µM).
With `COc1ccc(C2=NOC(C(=O)NCc3cccnc3)C2)cc1` (configuration not stated), the solubility (kinetic) is > 46.7 µg/mL.
In the case of `Cc1cc(C=O)c(C)n1C1CC1` it was 17.6 µg/mL (≈ 108 µM); in that of `CCc1ccc(NC(=O)NCCCN2CCCC2=O)cc1`, > 43.4 µg/mL; in that of `O=C(CNC(=O)Cc1ccc(Cl)cc1)NCc1ccco1`, 26.4 µg/mL (≈ 86.1 µM).
Molecule `CCCCNC(=O)COCc1cc(-c2ccc3c(c2)OCO3)on1` displayed a solubility (kinetic) of 19.5 µg/mL (≈ 58.7 µM).
Take `CNC(=O)C(=O)Nc1c(O)c2ccccc2[nH]c1=O`: the solubility (kinetic) was > 39.2 µg/mL.
For `CCOc1ccccc1NC(=O)c1ccc2ccccc2c1`, the solubility (kinetic) is < 0.6 µg/mL.
In the case of `CCSc1ncc(Cl)c(C(=O)Nc2ccccc2C)n1` it was 0.5 µg/mL (≈ 1.62 µM); in that of `OC(CCN1CCC2(CC1)OCCO2)C(F)(F)F` (configuration not stated), > 40.4 µg/mL; in that of `Cc1nc(SC(C)C(=O)NCc2ccc3c(c2)OCO3)nc(C)c1C` (configuration not stated), > 53.9 µg/mL.
In the case of `Cc1cc(C)cc(NC(=O)C2CCCN2C(=O)NC2CCCCC2)c1` (configuration not stated) it was 0.7 µg/mL (≈ 2.04 µM); in that of `Cc1cccc(C)c1NC(=O)COC(=O)c1cc[n+]([O-])cc1`, > 45 µg/mL; in that of `CCCNC(=O)C12CCC(C)(c3nc4cc(C)c(C)cc4nc31)C2(C)C` (configuration not stated), 32.2 µg/mL (≈ 91.6 µM).
In the case of `Cc1cccc(-n2c(SCC(N)=O)nnc2-c2ccco2)c1` it was > 47.2 µg/mL.
For the molecule `Fc1c(F)c(F)c(NC2=NCCCCC2)c(F)c1F`, the kinetic solubility was > 41.7 µg/mL.
For `CCOC(=O)N1CCN(C(=O)/C=C/c2ccc(C(C)(C)C)cc2)CC1`, the kinetic solubility turned out to be 22.9 µg/mL (≈ 66.5 µM).
In the case of `COc1ccc(CNc2ncnc3ccccc23)cc1` it was > 39.8 µg/mL; in that of `C=CCSc1nc(C)c(CCC(C)C)c(=O)[nH]1`, 9.2 µg/mL (≈ 36.5 µM); in that of `Cc1ccnc(NS(=O)(=O)c2ccc(NC(=O)c3oc4ccc(F)cc4c3C)cc2)n1`, 1.6 µg/mL (≈ 3.63 µM).
In the case of `CCCCn1c(N)c(N(CC)C(=O)C2CCC2)c(=O)[nH]c1=O` it was > 46.3 µg/mL; in that of `Cc1cc(Cl)ccc1NC(=O)Cn1cncn1`, > 37.6 µg/mL.
Take `O=C(OCC(=O)c1ccc[nH]1)c1ccc([N+](=O)[O-])cc1`: the kinetic solubility worked out at 13.3 µg/mL (≈ 48.5 µM).
As to `O=C(Nc1ccccc1N1CCCC1)c1ccccc1F`, the solubility (kinetic) stood at 19.8 µg/mL (≈ 69.6 µM).
The molecule `OCCC1CN(CC2CCCCC2)CCN1C1CCCC1` (configuration not stated) returned a kinetic solubility of 40.8 µg/mL (≈ 139 µM).
In the case of `CN(C(=O)CSc1nc(-c2cccs2)nc2ccccc12)C1CCS(=O)(=O)C1` (configuration not stated) it was 2.5 µg/mL (≈ 5.77 µM); in that of `COc1ccc(NC(=O)c2ccc(NC(=O)C3CC3)cc2)cc1`, < 0.3 µg/mL; in that of `Cn1c(=O)c2c([nH]c(=S)n2CCCc2ccccc2)n(C)c1=O`, 35.8 µg/mL (≈ 108 µM).
Regarding `CCOC(=O)CC(N)c1cccc([N+](=O)[O-])c1.Cl` (configuration not stated), the solubility (kinetic) was > 41.2 µg/mL.
Turning to `CC1CCCN(C(=O)CNC(=O)c2ccco2)C1` (configuration not stated), the kinetic solubility was > 37.5 µg/mL.
In the case of `CC(=O)c1cn(CC(=O)Nc2ccccc2Cl)c2ccccc12` it was 1 µg/mL (≈ 3.06 µM).
Take `Cc1cc(SCC(=O)c2ccc(O)c(O)c2)nc2ccccc12`: the solubility (kinetic) came out at 3.5 µg/mL (≈ 10.8 µM).
Consider `O=C(/C=C/c1cccs1)N1CCCC1`, for which the kinetic solubility is > 31.1 µg/mL.
As to `O=S(N1CCc2ccccc21)C12CC3CC(CC(C3)C1)C2` (configuration not stated), the solubility (kinetic) came to 4.4 µg/mL (≈ 14.6 µM).
In the case of `O=C(NCCOC(=O)c1ccc(F)cc1)c1ccc(F)cc1` it was 10.4 µg/mL (≈ 34.1 µM); in that of `CCCCN(C)C1CCN(C(=S)Nc2ccc(OC)cc2)CC1`, > 50.3 µg/mL; in that of `CCN(CC)S(=O)(=O)c1ccc(-c2csc(C)n2)s1`, 13.6 µg/mL (≈ 43 µM).
In the case of `O=C(Nc1ccc(O)cc1)c1ccc(NC(=O)c2cccs2)cc1` it was 0.8 µg/mL (≈ 2.36 µM); in that of `CC(=O)C1=NOC2C(=O)N(c3ccccc3)C(=O)C12` (configuration not stated), > 38.7 µg/mL; in that of `N#CCC(=O)Nc1ccc(C(=O)Nc2cccnc2)cc1`, > 42 µg/mL.
In the case of `CC(NC(=O)COC(=O)c1cccs1)c1ccccc1` (configuration not stated) it was 11.9 µg/mL (≈ 41.1 µM); in that of `Cc1ccc(S(=O)(=O)N(C)C(C)CCc2ccco2)cc1` (configuration not stated), 26.2 µg/mL (≈ 85.2 µM); in that of `COc1ccc(Nc2nc(N)c(C(=O)c3ccc(F)cc3)s2)cc1`, 5.2 µg/mL (≈ 15.1 µM).
On to `O=S(=O)(Cc1ccccc1)Nc1ccccc1Br`, for which the solubility (kinetic) was 40.6 µg/mL (≈ 124 µM). This solubility kinetic lies about 7.8-fold higher than the previous one.
In the case of `Cc1nc2ccc(NC(=O)Cc3cccc(F)c3)cc2s1` it was 11.5 µg/mL (≈ 38.3 µM); in that of `COc1ccc(Oc2nc(-c3ccccn3)nc3ccccc23)cc1`, 17.6 µg/mL (≈ 53.4 µM).
Molecule `NS(=O)(=O)c1cccc(NC(=O)COC(=O)/C=C/c2nc3ccccc3s2)c1` registered a solubility (kinetic) of 22.8 µg/mL (≈ 54.6 µM).

What is called solubility (kinetic) is solubility judged after dilution from a stock solution rather than from solid.

Values taken from PubChem BioAssay AID1996.
